Reference: EP0980241B1 (Pfizer Products Inc., priority 1997, dated 1999)
Converted amounts (≈) assume the structure as drawn. Structures can show the parent of a compound that is named as a salt.

What was measured:
[1] = known oral immediate-release dosage forms; cited from earlier work
[2] = in vivo
[3] = Chloride-induced gelling of saturated aqueous sertraline salt solutions; assay type: physicochemical
[4] = physchem
[5] = not given; remark: listed apart in the source
[6] = Dilution of PEG-400 or polysorbate-80 solution of sertraline base into 0.9% NaCl (precipitation test); assay type: physicochemical; conditions: for Observed Concentration after Dilution in Saline, after 15 min / Observed Concentration after Dilution in Saline, after 2 hr: 1 ml into 15 ml 0.9% NaCl pH 4.2
Protocol: One ml of this test solution was added to 15 ml normal saline (0.9% NaCl, pH 4.2), and was stirred vigorously. […]

[7] = Precipitation studies: sertraline base solution in vehicle added to 0.1 N HCl or phosphate buffered saline pH 5.8; assay type: physicochemical
Protocol: Solution (a) is a simulated gastric fluid, and solution (b) is a simulated intestinal fluid.
PEG-400 is miscible with aqueous media, while Capmul® -MCM and safflower oil are not. One milliliter of the test solution was added to 10 mL of (a) 0.1 N HCl solution and (b) phosphate buffered saline (PBS) pH 5.8 and was stirred vigorously.
• Mobile phase: per liter of mobile phase: 270 mL of tetrahydrofuran, 230 mL of methanol and 400 mL of buffer. The buffer consisted of 25 mM triethylamine phosphate. It was prepared by adding 1.7 mL of phosphoric acid and 3.5 mL of tirethylamine to 1 liter of water.

[8] = PEG-400, 50 mgA/ml in vehicle, expected 3.1
[9] = PEG-400, 100 mgA/ml in vehicle, expected 6.25
[10] = Polysorbate-80, 50 mgA/ml in vehicle, expected 3.1
[11] = Polysorbate-80, 100 mgA/ml in vehicle, expected 6.25

CN[C@H]1CC[C@@H](c2ccc(Cl)c(Cl)c2)c2ccccc21 [sertraline]
Tmax [1]: 6 to 7 h
half-time for absorption [2]: less than 27.7 minutes

sertraline lactate
appearance of saturated solution at physiological chloride concentrations [3]: thick pasty solid which does not flow

CN[C@H]1CC[C@@H](c2ccc(Cl)c(Cl)c2)c2ccccc21 [Hydrochloride, sertraline hydrochloride]
solubility ([4]; capmul-mcm, organic solvent or mixture, Solubility in Capmul-MCM): ~45 mg/mL
solubility ([4]; safflower oil, organic solvent or mixture, Solubility in Safflower Oil): < 9 mg/mL
Equilibrium solubility in Olive oil: <0.01 (below detection limit) mgA/ml
Equilibrium solubility in Safflower oil: <0.01 (below detection limit) mgA/ml
Solubility in Polysorbate-80 [5]: <14 mgA/ml

sertraline acetate
appearance of saturated solution at physiological chloride concentrations [3]: thick pasty solid which does not flow

CN[C@H]1CC[C@@H](c2ccc(Cl)c(Cl)c2)c2ccccc21 [Free base, sertraline free base]
Observed Concentration after Dilution in Saline, after 15 min [6, 8]: 0.9 mgA/ml
Observed Concentration after Dilution in Saline, after 2 hr [6, 8]: 2.1 mgA/ml
Observed Concentration after Dilution in Saline, after 15 min [6, 9]: 0.7 mgA/ml
Observed Concentration after Dilution in Saline, after 2 hr [6, 9]: 1.8 mgA/ml
Precipitation upon addition to a NaCl solution ([6]; PEG-400 solution): a portion of the sertraline precipitates
Observed Concentration after Dilution in Saline, after 15 min [6, 10]: 3.1 mgA/ml
Observed Concentration after Dilution in Saline, after 2 hr [6, 10]: 3.1 mgA/ml
Observed Concentration after Dilution in Saline, after 15 min [6, 11]: 6.25 mgA/ml
Observed Concentration after Dilution in Saline, after 2 hr [6, 11]: 6.25 mgA/ml
Precipitation upon addition to a NaCl solution ([6]; Polysorbate-80 solution): no precipitation occurs
Concentration of sertraline in non-aqueous layer ([7]; Capmul MCM 50 mgA/mL, 1 mL into 10 mL 0.1 N HCl, 15 minutes): 44 mgA/ mL
Concentration of sertraline in aqueous layer ([7]; Capmul MCM 50 mgA/mL, 1 mL into 10 mL 0.1 N HCl, 15 minutes, expected 5.00): 0.38 mgA/ mL
Concentration of sertraline in non-aqueous layer ([7]; Capmul MCM 50 mgA/mL, 1 mL into 10 mL 0.1 N HCl, 120 minutes): 44.2 mgA/ mL
Concentration of sertraline in aqueous layer ([7]; Capmul MCM 50 mgA/mL, 1 mL into 10 mL 0.1 N HCl, 120 minutes, expected 5.00): 0.31 mgA/ mL
Concentration of sertraline in non-aqueous layer ([7]; Capmul MCM 50 mgA/mL, 1 mL into 10 mL Phosphate buffered saline pH 5.8, 15 minutes): 48 mgA/ mL
Concentration of sertraline in aqueous layer ([7]; Capmul MCM 50 mgA/mL, 1 mL into 10 mL Phosphate buffered saline pH 5.8, 15 minutes, expected 5.00): 0.18 mgA/ mL
Concentration of sertraline in non-aqueous layer ([7]; Capmul MCM 50 mgA/mL, 1 mL into 10 mL Phosphate buffered saline pH 5.8, 120 minutes): 48.6 mgA/ mL
Concentration of sertraline in aqueous layer ([7]; Capmul MCM 50 mgA/mL, 1 mL into 10 mL Phosphate buffered saline pH 5.8, 120 minutes, expected 5.00): 0.16 mgA/ mL
precipitation of sertraline ([7]; Capmul-MCM vehicle): essentially no precipitation
portion of sertraline that remains in solution ([7]; Capmul-MCM vehicle, 0.1 N HCl or phosphate buffered saline): > 95 % of added amount
Concentration of sertraline in aqueous layer ([7]; PEG 400 50 mgA/mL, 1 mL into 10 mL 0.1 N HCl, 15 minutes, expected 4.55): 0.6 mgA/ mL
Concentration of sertraline in aqueous layer ([7]; PEG 400 50 mgA/mL, 1 mL into 10 mL 0.1 N HCl, 120 minutes, expected 4.55): 0.35 mgA/ mL
Concentration of sertraline in aqueous layer ([7]; PEG 400 50 mgA/mL, 1 mL into 10 mL Phosphate buffered saline pH 5.8, 15 minutes, expected 4.55): 0.16 mgA/ mL
Concentration of sertraline in aqueous layer ([7]; PEG 400 50 mgA/mL, 1 mL into 10 mL Phosphate buffered saline pH 5.8, 120 minutes, expected 4.55): 0.12 mgA/ mL
precipitation of sertraline ([7]; PEG 400 solution into either 0.1 N HCl or phosphate buffered saline): precipitation of a large proportion of sertraline
Concentration of sertraline in non-aqueous layer ([7]; Safflower oil 50 mgA/mL, 1 mL into 10 mL 0.1 N HCl, 15 minutes): 4.8 mgA/ mL
Concentration of sertraline in aqueous layer ([7]; Safflower oil 50 mgA/mL, 1 mL into 10 mL 0.1 N HCl, 15 minutes, expected 5.00): 0.48 mgA/ mL
Concentration of sertraline in non-aqueous layer ([7]; Safflower oil 50 mgA/mL, 1 mL into 10 mL 0.1 N HCl, 120 minutes): 3.2 mgA/ mL
Concentration of sertraline in aqueous layer ([7]; Safflower oil 50 mgA/mL, 1 mL into 10 mL 0.1 N HCl, 120 minutes, expected 5.00): 0.48 mgA/ mL
Concentration of sertraline in non-aqueous layer ([7]; Safflower oil 50 mgA/mL, 1 mL into 10 mL Phosphate buffered saline pH 5.8, 15 minutes): 45 mgA/ mL
Concentration of sertraline in aqueous layer ([7]; Safflower oil 50 mgA/mL, 1 mL into 10 mL Phosphate buffered saline pH 5.8, 15 minutes, expected 5.00): 0.19 mgA/ mL
Concentration of sertraline in non-aqueous layer ([7]; Safflower oil 50 mgA/mL, 1 mL into 10 mL Phosphate buffered saline pH 5.8, 120 minutes): 44.6 mgA/ mL
Concentration of sertraline in aqueous layer ([7]; Safflower oil 50 mgA/mL, 1 mL into 10 mL Phosphate buffered saline pH 5.8, 120 minutes, expected 5.00): 0.19 mgA/ mL
precipitation of sertraline ([7]; safflower oil solution added to phosphate buffered saline): little or no precipitation
precipitation of sertraline ([7]; safflower oil vehicle, in the presence of 0.1N HCl): 81%
solubility ([4]; polysorbate-80, organic solvent or mixture): ~102 mg/mL (≈ 333 mM)
Equilibrium solubility in Capmul-®MCM (capmul-mcm): >50 mgA/ml
Equilibrium solubility in Captex® 200 (captex 200): >50 mgA/ml
Equilibrium solubility in Migloyol® 810 (miglyol 810): >50 mgA/ml
Equilibrium solubility in Oleic acid (oleic acid): >50 mgA/ml
Equilibrium solubility in Olive oil: >50 mgA/ml
Equilibrium solubility in Safflower oil: >50 mgA/ml
